Data taken from US20140309210A1, “INDAZOLE COMPOUNDS, COMPOSITIONS AND METHODS OF USE THEREOF” (Genentech, Inc., priority 2011, published 2014).

Target: T1, purified ITK (Invitrogen PV3875) (Homo sapiens, UniProt Q08881)
T1 construct: purchased Invitrogen PV3875
T1 sequence (Q08881 1-620): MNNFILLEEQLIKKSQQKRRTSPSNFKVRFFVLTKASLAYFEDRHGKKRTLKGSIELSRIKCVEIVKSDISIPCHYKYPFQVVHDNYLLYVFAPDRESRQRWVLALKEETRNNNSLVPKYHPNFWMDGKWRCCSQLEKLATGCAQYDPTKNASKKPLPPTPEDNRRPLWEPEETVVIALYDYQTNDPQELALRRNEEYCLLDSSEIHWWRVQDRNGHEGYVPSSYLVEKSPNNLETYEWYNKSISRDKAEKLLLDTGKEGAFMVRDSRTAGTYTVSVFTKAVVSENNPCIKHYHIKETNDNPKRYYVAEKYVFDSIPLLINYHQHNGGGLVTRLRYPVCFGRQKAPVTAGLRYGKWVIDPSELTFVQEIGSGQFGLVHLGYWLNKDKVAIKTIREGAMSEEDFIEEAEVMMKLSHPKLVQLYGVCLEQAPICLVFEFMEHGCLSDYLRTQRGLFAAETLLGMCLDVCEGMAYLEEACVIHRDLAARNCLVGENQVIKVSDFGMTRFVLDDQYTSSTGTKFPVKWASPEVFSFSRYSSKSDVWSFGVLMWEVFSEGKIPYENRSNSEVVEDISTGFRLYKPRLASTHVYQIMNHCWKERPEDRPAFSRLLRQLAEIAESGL
Test: ITK peptide phosphorylation assay (Caliper LabChip or LCMS)
Format: biochemical
Summary of the method: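 Purified human ITK peptide phosphorylation, quenched with EDTA (50 mM final) for Caliper LabChip separation or TCA (5% v/v final) for UPLC-MS/MS MRM quantification. Ki derived via Morrison tight-binding equation, corrected for competitive inhibition using ATP concentration relative to Km,app.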

[1] = Table 2, Examples 1-140, class symbols
[2] = Table 3, specific values for certain examples

SMILES | Ki (Table 1, Examples 141-279) [nM] | Ki [1] [nM] | Ki [2] [nM]
O=C(Nc1cnn([C@H](CO)c2cscn2)c1)c1n[nH]c2cc(-c3cn[nH]c3)ccc12 [Example 178, N-[1-[(1S)-2-hydroxy-1-thiazol-4-yl-ethyl]pyrazol-4-yl]-6-(1H-pyrazol-4-yl)-1H-indazole-3-carboxamide] | 6.19 |  | 
CC(c1ccccc1)n1cc(NC(=O)c2n[nH]c3ccccc23)cn1 (centres unmarked) [Example 131, N-(1-(1-phenylethyl)-1H-pyrazol-4-yl)-1H-indazole-3-carboxamide] |  | 1 to 100 | 
COc1cncc(-c2ccc3c(C(=O)Nc4cnn(C(C)C)c4)n[nH]c3c2)c1 [Example 223, N-(1-isopropylpyrazol-4-yl)-6-(5-methoxy-3-pyridyl)-1H-indazole-3-carboxamide] | 90 |  | 
O=C(Nc1cnn(Cc2nc3ccccc3s2)c1)c1n[nH]c2cc(-c3cn[nH]c3)ccc12 [Example 17, 6-(1H-Pyrazol-4-yl)-1H-indazole-3-carboxylic acid (1-benzothiazol-2-ylmethyl-1H-pyrazol-4-yl)-amide] |  | 1 to 100 | 1.8
CC(=O)N(C)CCC(c1ccccc1)n1cc(NC(=O)c2n[nH]c3ccccc23)cn1 (centres unmarked) [Example 265, N-[1-[3-[acetyl(meth-yl)amino]-1-phenyl-propyl]pyrazol-4-yl]-1H-indazole-3-carboxamide] | 23.8 |  | 
O=C(Nc1cnn(Cc2noc3ccccc23)c1)c1n[nH]c2cc(-c3cn[nH]c3)ccc12 [Example 14, 6-(1H-Pyrazol-4-yl)-1H-indazole-3-carboxylic acid (1-1,2-benzisoxazol-3-ylmethyl-1H-pyrazol-4-yl)-amide] |  | 1 to 100 | 2
COC(=O)C(c1ccccc1)n1cc(NC(=O)c2n[nH]c3ccccc23)cn1 (centres unmarked) [Example 255, methyl 2-[4-(1H-indazole-3-carbonylamino)py-razol-1-yl]-2-phenyl-acetate] | 38.3 |  | 
N#Cc1cccc(Cn2cc(NC(=O)c3n[nH]c4ccc(CCO)cc34)cn2)c1 [Example 82] |  | 1 to 100 | 
CC(C)(O)Cn1cc(NC(=O)c2n[nH]c3cc(-c4cn[nH]c4)ccc23)cn1 [Example 170, N-[1-(2-hydroxy-2-methyl-propyl)pyrazol-4-yl]-6-(1H-pyrazol-4-yl)-1H indazole-3-carboxamide] | 8.74 |  | 
N#Cc1cncc(-c2ccc3c(C(=O)Nc4cnn(Cc5cscn5)c4)n[nH]c3c2)c1 [Example 44, 6-(5-Cyano-pyridin-3-yl)-1H-indazole-3-carboxylic acid (1-thiazol-4-ylmethyl-1H-pyrazol-4-yl)-amide] |  | 1 to 100 | 
O=C(Nc1cnn(Cc2ccccc2)c1)c1n[nH]c2cc(-c3cnccn3)ccc12 [Example 204, N-(1-benzyl-1H-pyrazol-4-yl)-6-(pyrazin-2-yl)-1H-indazole-3-carboxamide] | 37.8 |  | 
O=C(Nc1cnn(CCCCN2CCCC(O)C2)c1)c1n[nH]c2ccccc12 (centres unmarked) [Example 76, N-(1-(4-(3-Hydroxypiperidin-1-yl)butyl)-1H-pyrazol-4-yl)-1H-indazole-3-carboxamide] |  | > 100 | 
O=C(Nc1cnn(Cc2cccc(C(F)(F)F)c2)c1)c1n[nH]c2ccccc12 [Example 59, N-(1-(3-(trifluoromethyl)benzyl)-1H-pyrazol-4-yl)-1H-indazole-3-carboxamide] |  | 1 to 100 | 
O=C(Nc1cnn(C(CO)c2ccccc2)c1)c1n[nH]c2ccccc12 (centres unmarked) [Example 257, N-[1-(2-hydroxy-1-phenyl-ethyl)pyrazol-4-yl]-1H-indazole-3-carboxamide] | 35.5 |  | 
N#CCCn1cc(NC(=O)c2n[nH]c3cc(-c4cn[nH]c4)ccc23)cn1 [Example 261, N-[1-(2-cyanoethyl)py-razol-4-yl]-6-(1H-pyrazol-4-yl)-1H-indazole-3-carboxamide] | 4.81 |  | 
O=C(Nc1cnn(Cc2csc(N3CCC(O)C3)n2)c1)c1n[nH]c2cc(-c3cn[nH]c3)ccc12 (centres unmarked) [Example 158, N-[1-[[2-(3-hydroxypyrrolidin-1-yl)thiazol-4-yl]methyl]pyrazol-4-yl]-6-(1H-pyrazol-4-yl)-1H-indazole-3-carboxamide] | 3.93 |  | 
Nc1cc(Cn2cc(NC(=O)c3n[nH]c4cc(-c5cccnc5)ccc34)cn2)ccn1 [Example 32, N-[1-[(2-amino-4-pyridyl)methyl]pyrazol-4-yl]-6-(3-pyridyl)-1H-indazole-3-carboxamide] |  | 1 to 100 | 

SMILES | Ki (Table 1, Examples 141-279) [nM] | Ki [1] [nM] | Ki [2] [nM]
O=C(Nc1cnn(C(CCN2CCOCC2)c2ccccc2)c1)c1n[nH]c2cc(-c3cn[nH]c3)ccc12 (centres unmarked) [Example 162, N-[1-(3-morpholino-1-phenyl-propyl)pyrazol-4-yl]-6-(1H-pyrazol-4-yl)-1H-indazole-3-carboxamide] | 0.28 |  | 
O=C(Nc1cnn(Cc2ccc(C(F)(F)F)cc2)c1)c1n[nH]c2ccccc12 [Example 62, N-(1-(4-(trifluoromethyl)benzyl)-1H-pyrazol-4-yl)-1H-indazole-3-carboxamide] |  | 1 to 100 | 
O=C(Nc1cnn(Cc2cn3ccccc3n2)c1)c1n[nH]c2cc(-c3cn[nH]c3)ccc12 [Example 19, 6-(1H-Pyrazol-4-yl)-1H-indazole-3-carboxylic acid (1-imidazo[1,2-a]pyridin-2-ylmethyl-1H-pyrazol-4-yl)-amide] |  | 1 to 100 | 2.3
CN(C)CCC(c1ccccc1)n1cc(NC(=O)c2n[nH]c3cc(-c4cccnc4)ccc23)cn1 (centres unmarked) [Example 157, N-[1-[3-(dimethylamino)-1-phenyl-propyl]pyrazol-4-yl]-6-(3-pyridyl)-1H-indazole-3-carboxamide] | 7.81 |  | 
N#Cc1cccc(Cn2cc(NC(=O)c3n[nH]c4ccc(C5(CO)CC5)cc34)cn2)c1 [Example 193, N-[1-[(3-cyanophenyl)meth-yl]pyrazol-4-yl]-5-[1-(hydroxymeth-yl)cyclopropyl]-1H-indazole-3-carboxamide] | 26.3 |  | 
O=C(Nc1cnn(Cc2cc(CN3CCOCC3)on2)c1)c1n[nH]c2cc(-c3cn[nH]c3)ccc12 [Example 18, 6-(1H-Pyrazol-4-yl)-1H-indazole-3-carboxylic acid [1-(5-morpholin-4-ylmethyl-isoxazol-3-ylmethyl)-1H-pyrazol-4-yl]-amide] |  | 1 to 100 | 
CNC(=O)c1ccc(Cn2cc(NC(=O)c3n[nH]c4cc(-c5cccnc5)ccc34)cn2)o1 [Example 33, N-[1-[[5-(methylcarbamoyl)-2-furyl]methyl]pyrazol-4-yl]-6-(3-pyridyl)-1H-indazole-3-carboxamide] |  | 1 to 100 | 
O=C(Nc1cnn(Cc2cnc(N3CCOCC3)nc2)c1)c1n[nH]c2cc(-c3cn[nH]c3)ccc12 [Example 227, N-[1-[(2-morpholinopy-rimidin-5-yl)methyl]pyrazol-4-yl]6-(1H-pyrazol-4-yl)-1H-indazole-3-carboxamide] | 2.36 |  | 
O=C(Nc1cnn(Cc2cccc(N3CCOCC3)c2)c1)c1n[nH]c2cc(-c3cn[nH]c3)ccc12 [Example 40, N-[1-[(3-morpholinophenyl)methyl]pyrazol-4-yl]-6-(1H-pyrazol-4-yl)-1H-indazole-3-carboxamide] |  | 0.01 to 1 | 
N#CCn1cc(NC(=O)c2n[nH]c3cc(-c4cn[nH]c4)ccc23)cn1 [Example 260, N-[1-(cyanomethyl)py-razol-4-yl]-6-(1H-pyrazol-4-yl)-1H-indazole-3-carboxamide] | 11.9 |  | 
CN1CCC(Nc2ccc3c(C(=O)Nc4cnn(Cc5cccc(C#N)c5)c4)n[nH]c3c2)C1 (centres unmarked) [Example 172, N-[1-[(3-cyanophenyl)meth-yl]pyrazol-4-yl]-6-[(1-methylpyrrolidin-3-yl)amino]-1H-indazole-3-carboxamide] | 1400 |  | 
COc1cncc(-c2ccc3c(C(=O)Nc4cnn(Cc5ccccn5)c4)n[nH]c3c2)c1 [Example 221, 6-(5-methoxy-3-pyridyl)-N-[1-(2-pyridylmethyl)py-razol-4-yl]-1H-indazole-3-carboxamide] | 51.4 |  | 
Cn1ccc(-c2ccc3c(C(=O)Nc4cnn(Cc5cccc(C#N)c5)c4)n[nH]c3c2)n1 [Example 203, N-[1-[(3-cyanophenyl)meth-yl]pyrazol-4-yl]-6-(1-methylpyrazol-3-yl)-1H-indazole-3-carboxamide] | 1100 |  | 
COc1cccc2c(C(=O)Nc3cnn(Cc4cccc(C#N)c4)c3)n[nH]c12 [Example 5, N-(1-(3-cyanobenzyl)-1H-pyrazol-4-yl)-7-methoxy-1H-indazole-3-carboxamide] |  | > 100 | > 3500
CN1CCC(c2ccc3c(C(=O)Nc4cnn(Cc5cccc(C#N)c5)c4)n[nH]c3c2)C1 (centres unmarked) [Example 188, N-[1-[(3-cyanophenyl)meth-yl]pyrazol-4-yl]-6-(1-methylpyrrolidin-3-yl)-1H-indazole-3-carboxamide] | 1600 |  | 
COc1cncc(-c2ccc3c(C(=O)Nc4cnn(C(CCN(C)C)c5ccccc5)c4)n[nH]c3c2)c1 (centres unmarked) [Example 213, N-[1-[3-(dimethylamino)-1-phenyl-propyl]pyrazol-4-yl]-6-(5-methoxy-3-pyridyl)-1H-indazole-3-carboxamide] | 8.01 |  | 
N#Cc1cccc(Cn2cc(NC(=O)c3n[nH]c4ccc(-c5ccccc5)cc34)cn2)c1 [Example 79, N-(1-(3-Cyanobenzyl)-1H-pyrazol-4-yl)-5-phenyl-1H-indazole-3-carboxamide] |  | > 100 | 
